Here are results for four compounds from US11597933B2, “Combination therapy of lymphoma” (The Trustees of Columbia University in the City of New York, priority 2017, dated 2023).

SMILES strings stand for the structures. Like-named read-outs stand apart in the source and are kept apart here.

One data set relates to Pfeiffer. Briefly: Cell viability assay, Pfeiffer. Format: cell-based. The note with it: for IC50: Pfeiffer. An excerpt:
(§1) OCI-LY1, SU-DHL-2, SU-DHL-6, Pfeiffer, Farage, Toledo, Riva, HBL-1, Jeko-1, Z-138, H9, and HH were obtained from ATCC. OCI-LY7, OCI-LY10, SU-DHL-10 and OCI-LY3 were obtained from DSMZ. PF382, and P12 were a gift from the laboratory of Adolfo Fernando. TLOM-1 and MT-1 were obtained from Kyoto University; and MT-2 was obtained from Memorial Sloan Kettering Cancer Center. All cell lines were authenticated and screened for mycoplasma using the ATCC/Promega STR Authentication Testing Kit and Lonza MycoAlert.
(§2) Synergy was assessed by excess over bliss (EOB). […] Criteria for analyzing interactions between biologically active agents. Advances in cancer research 1981; 35:269-335.
(§3) To understand the effects of EZH2 inhibition and HDAC inhibition in cell lines with or without EZH2 dysfunction and HAT mutations, a panel of 21 lymphoma cell lines were exposed to GSK126, an EZH2 inhibitor, and romidepsin, a pan-HDAC inhibitor, as single agents. Both B-cell and TCL were selected in order to establish a range of drug sensitivity and mutational status. EZH2 status and HAT mutational status were confirmed.

For another data set, the system named is TLOM-1. Briefly: Cell viability assay, TLOM-1. Format: cell-based.
From the text: as §1, §2, §3

A further data set relates to Riva. Briefly: Cell viability assay, Riva. It counts as cell-based.
From the text: as §1, §2, §3

A further data set concerns HH. Briefly: Cell viability assay, HH. It counts as cell-based.
From the text: as §1, §2, §3

A further data set relates to MT-1. Briefly: Cell viability assay, MT-1. Format: cell-based.
From the text: as §1, §2, §3

The test system of another data set is P12. Briefly: Cell viability assay, P12. Format: cell-based.
From the text: as §1, §2, §3

In the next data set the test system is SU-DHL-6. Briefly: Cell viability assay, SU-DHL-6. It counts as cell-based.
From the text: as §1, §2, §3

The nature of a further data set: in vivo. As to conditions: mouse, serum, ip.
The test system of another data set is Z-138. Briefly: Cell viability assay, Z-138. Format: cell-based.
From the text: as §1, §2, §3

The next data set relates to OCI-LY3. Briefly: Cell viability assay, OCI-LY3. Format: cell-based.
From the text: as §1, §2, §3

A further data set deals with MT-2. Briefly: Cell viability assay, MT-2. Format: cell-based.
From the text: as §1, §2, §3

The test system of another data set is HBL-1. Briefly: Cell viability assay, HBL-1. Format: cell-based.
From the text: as §1, §2, §3

The next data set deals with SU-DHL-2. Briefly: Cell viability assay, SU-DHL-2. It counts as cell-based.
From the text: as §1, §2, §3

In another data set the test system is Toledo. Briefly: Cell viability assay, Toledo. Format: cell-based.
From the text: as §1, §2, §3

For a further data set, the system named is OCI-LY1. Briefly: Cell viability assay, OCI-LY1. It counts as cell-based.
From the text: as §1, §2, §3

Data set [1] is described as follows: Pharmacokinetic analysis of serum and tumor samples. As to conditions: single exposure to GSK126 and romidepsin, over 24 hours.
Procedure: (§4) F. Serum romidepsin pharmacokinetic parameters after single injection of GSK and romidepsin over 24 hours.
For a further data set, the system named is PF-382. Briefly: Cell viability assay, PF-382. Format: cell-based.
From the text: as §1, §2, §3

The next data set relates to H9. Briefly: Cell viability assay, H9. It counts as cell-based.
From the text: as §1, §2, §3

The subject of a further data set is Jeko-1. Briefly: Cell viability assay, Jeko-1. It counts as cell-based.
From the text: as §1, §2, §3

Another data set has as its system SU-DHL-10. Briefly: Cell viability assay, SU-DHL-10. Format: cell-based.
From the text: as §1, §2, §3

The next data set concerns Farage. Briefly: Cell viability assay, Farage. Format: cell-based.
From the text: as §1, §2, §3

For the next data set, the system named is RbAp 46/48 (RBBP4). Briefly: Acetyl-lysine immunoprecipitation and mass spectrometry. It counts as cell-based. As to conditions: SU-DHL-10 cells, acetyl-lysine antibody IP, compared to control, FDR<1.0%. Here is the method:
Immunoprecipitation was performed using Thermo Scientific™ Pierce™ MS-Compatible Magnetic IP Kit (#84840). Protein was incubated with EZH2 or acetylated-lysine antibody. Antibody bound proteins were eluted and run into SDS PAGE. The excised gel lane pieces were reduced, alkylated, and digested in Trypsin Gold (Promega) digestion buffer (Thermo Fischer Scientific). Condensed evaporated water was collected by brief centrifugation using microcentrifuge (Eppendorf). The gel pieces and digestion reaction were mixed with 2.5% Trifluoretic Acids (TFA, Thermo Fischer Scientific). Peptides were extracted with 70% acetonitrile (ACN/5% TFA mixture) (Thermo Fischer Scientific). The extracts were pooled and dried to completion in SpeedVac.
The concentrated peptide mix was reconstituted in a solution of 2% ACN, 2% formic acid (FA) for MS analysis. Peptides were eluted from the column using a Dionex Ultimate 3000 Nano LC system. Using Thermo Fusion Tribrid mass spectrometer (Thermo Scientific), eluted peptides were electro sprayed. Mass spectrometer-scanning functions and HPLC gradients were controlled by the Xcalibur data system (Thermo Fischer).
Tandem mass spectra from raw files were searched against uniprot_human_170129.fasta data base using the Proteome Discoverer 2.1 (Thermo Fischer). The […] protein database was downloaded as FASTA-formatted sequences from Uniprot protein database (January 2017). […]

The test system of the next data set is OCI-LY10. Briefly: Cell viability assay, OCI-LY10. Format: cell-based.
From the text: as §1, §2, §3

The next data set concerns OCI-LY7. Briefly: Cell viability assay, OCI-LY7. Format: cell-based.
From the text: as §1, §2, §3

The test system of data set [2] is R/R DLBCL or follicular lymphoma (FL). The note with it: 800 mg BID, cited from earlier work.
The conditions of data set [3]: mouse, in vivo.
Procedure: as §4
For a further data set, the system named is HEK 293T cells. Briefly: H3K27 acetylation and methylation in HEK 293T cells. As to conditions: single agent exposure in HEK 293T cells. It counts as cell-based.
Setting [4] is: 72 h, read-out: IC50 Romidespin.
Where [5] appears, read: Homo sapiens, 72 h, read-out: IC50 Romidespin.
Setting [6] is: GC-DLBCL, EZH2 Wildtype, 144 hours, read-out: IC50 GSK126.

The Cmax is the maximum level reached in the sampled fluid or tissue.

Procedure for in vivo: as §4

For `CCN(c1cc(C#CCN2CCOCC2)cc(C(=O)NCc2c(C)cc(C)[nH]c2=O)c1C)[C@H]1CC[C@H](N(C)CCOC)CC1` [EPZ011989], the “sensitivity, cell viability curve” value with Pfeiffer (Pfeiffer (GC-DLBCL), single agent) is reported as “potent sensitivity”.

Regarding `C/C=C1\NC(=O)[C@H]2CSSCC/C=C/[C@H](CC(=O)N[C@H](C(C)C)C(=O)N2)OC(=O)[C@H](C(C)C)NC1=O` [romidepsin], the IC50 with TLOM-1 (setting [4]) was 4.3 nM; in the data set with Riva (setting [4]), 1.5 nM; in the data set on HH (setting [5]), 1.1 nM; in the data set with MT-1 (setting [4]) it was 2.8 nM; in the data set with P12 (P12, 72 h, read-out: IC50 Romidespin) it was 4.3 nM; in the data set on SU-DHL-6 (Homo sapiens, SU-DHL-6, 72 h, read-out: IC50 Romidespin), 2 nM. For the same compound, the IC50 in the data set on Pfeiffer (setting [5]) amounted to 6 nM; in the data set on Z-138 (Homo sapiens, Z-138, 72 h, read-out: IC50 Romidespin) it was 1.1 nM; in the data set on OCI-LY3 (Homo sapiens, OCI-Ly3, 72 h, read-out: IC50 Romidespin) it was 1.7 nM; with MT-2 (Homo sapiens, MT2, 72 h, read-out: IC50 Romidespin), 2.7 nM; with HBL-1 (HBL1, 72 h, read-out: IC50 Romidespin), 1 nM; in the data set on SU-DHL-2 (Homo sapiens, SU-DHL-2, 72 h, read-out: IC50 Romidespin) it was 1.3 nM. Besides, the IC50 in the data set with Toledo (setting [5]) was determined as 1 nM; in the data set with OCI-LY1 (Homo sapiens, OCI-Ly1, 72 h, read-out: IC50 Romidespin), 2.5 nM; in the data set with PF-382 (Homo sapiens, PF-382, 72 h, read-out: IC50 Romidespin), 3.5 nM; with H9 (Homo sapiens, H9, 72 h, read-out: IC50 Romidespin) it was 1.3 nM; in the data set with Jeko-1 (Homo sapiens, JeKo-1, 72 h, read-out: IC50 Romidespin), 1.1 nM; in the data set with SU-DHL-10 (Homo sapiens, SU-DHL10, 72 h, read-out: IC50 Romidespin, SU-DHL-10, GC-DLBCL, EP300 mis mut/CREBBP trunc mut, 72-hour exposure), 2.59 nM. The IC50 is 2.1 nM with SU-DHL-10 (read-out: IC50 Romidespin, SU-DHL-10, GC-DLBCL, EP300 mis mut/CREBBP trunc mut, 72-hour exposure); 1.7 nM with Farage (setting [4]); 1 nM with OCI-LY10 (Homo sapiens, OCI-Ly10, 72 h, read-out: IC50 Romidespin); 1.5 nM with OCI-LY7 (Homo sapiens, OCI-Ly7, 72 h, read-out: IC50 Romidespin). Moreover, the Cmax in the data set “in vivo” stood at 25.1 ng/mL. Besides, the intratumor concentration result in data set [1] is recorded as “below the level of detection”. The “increase of RbAp 46/48 (RBBP4) estimated by spectral counts” value in the data set with RbAp 46/48 (RBBP4) is 2 fold.

Turning to `CCN(c1cc(-c2ccc(CN3CCOCC3)cc2)cc(C(=O)NCc2c(C)cc(C)[nH]c2=O)c1C)C1CCOCC1` [tazemetostat], the tolerability entry in data set [2] (preliminary results) is on record as “well tolerated”. Also, in data set [2], the “treatment related emergent adverse events: anemia” value is 10%, the “treatment related emergent adverse events: nausea” value is given as 14% and the “treatment related emergent adverse events: thrombocytopenia” value is given as 13%.

As for `CC[C@H](C)n1cc(C)c2c(C(=O)NCc3c(C)cc(C)[nH]c3=O)cc(-c3ccc(N4CCNCC4)nc3)cc21` [GSK126], the IC50 in the data set on TLOM-1 (TLOM-1, ATLL, EZH2 Overexpression, 144 hours, read-out: IC50 GSK126) was determined as 1500 nM; in the data set with Riva (Riva, ABC-DLBCL, EZH2 Wildtype, 144 hours, read-out: IC50 GSK126) it was 7500 nM; in the data set with HH (CTCL, EZH2 Wildtype, 144 hours, read-out: IC50 GSK126), 4400 nM; in the data set with MT-1 (MT-1, ATLL, EZH2 Overexpression, 144 hours, read-out: IC50 GSK126) it was 4400 nM; in the data set with P12 (P12, T-ALL, EZH2 Wildtype, 144 hours, read-out: IC50 GSK126) it was 6000 nM; with SU-DHL-6 (SU-DHL-6, GC-DLBCL, EZH2 Y602N, Y646N, 144 hours, read-out: IC50 GSK126), 3100 nM. Also, the IC50 in the data set with Pfeiffer (GC-DLBCL, EZH2 A677G, 144 hours, read-out: IC50 GSK126) turned out to be 100 nM; in the data set with Z-138 (Z-138, Mantle Cell, EZH2 Overexpression, 144 hours, read-out: IC50 GSK126), 7100 nM; in the data set on OCI-LY3 (OCI-LY3, ABC-DLBCL, EZH2 Wildtype, 144 hours, read-out: IC50 GSK126), 7200 nM; in the data set on MT-2 (MT-2, ATLL, EZH2 Overexpression, 144 hours, read-out: IC50 GSK126) it was 9000 nM; in the data set with HBL-1 (HBL-1, ABC-DLBCL, EZH2 Wildtype, 144 hours, read-out: IC50 GSK126) it was 4200 nM; in the data set on SU-DHL-2 (SU-DHL-2, ABC-DLBCL, EZH2 Wildtype, 144 hours, read-out: IC50 GSK126), 4400 nM. Further, the IC50 in the data set with Toledo (setting [6]) was found to be 6000 nM; in the data set on OCI-LY1 (OCI-LY1, GC-DLBCL, EZH2 Y602N, Y646N, 144 hours, read-out: IC50 GSK126), 3700 nM; in the data set on PF-382 (PF-382, T-ALL, EZH2 Wildtype, 144 hours, read-out: IC50 GSK126), 5600 nM; in the data set with H9 (H9, CTCL, EZH2 Wildtype, 144 hours, read-out: IC50 GSK126), 6100 nM; in the data set with Jeko-1 (Jeko-1, Mantle Cell, EZH2 Overexpression, 144 hours, read-out: IC50 GSK126) it was 10000 nM; with SU-DHL-10 (SU-DHL-10, GC-DLBCL, EZH2 Y641F, Y646S, 144 hours, read-out: IC50 GSK126), 700 nM. For the same compound, the IC50 turned out to be 10000 nM in the data set with Farage (setting [6]); 6400 nM with OCI-LY10 (OCI-LY10, ABC-DLBCL, EZH2 Wildtype, 144 hours, read-out: IC50 GSK126); 4300 nM in the data set with OCI-LY7 (OCI-LY7, GC-DLBCL, EZH2 Wildtype, 144 hours, read-out: IC50 GSK126). Besides, the Cmax in data set [3] was determined as 3.15 µM; in data set [3] (ip), 1657.5 ± 413.6 ng/mL. Besides, the “serum AUC0-last” value in [3] turned out to be 2828.57 ng·h/mL. For the same compound, the “status of acetylation or methylation of H3K27” value with HEK 293T cells is given as “did not significantly change”.
